The results in this text go back to patent EP3431468B1, “USE OF ADIPONECTIN RECEPTOR AGONISTS IN TREATING DEPRESSION, ANXIETY AND NEUROINFLAMMATION” (CENTRE NATIONAL DE LA RECHERCHE SCIENTIFIQUE, priority 2017, dated 2019).

Assay [1] deals with corticosterone-treated mice. Description: Light & Dark test (L&D), chronic administration. The class given is in vivo. The following applies: chronic 1mg/kg ip daily. The protocol:
(§1) Three well-established mouse models of depression-like behavior have been used in the present study namely i- the long-term corticosterone treatment in the drinking water (David, Samuels et al. 2009), ii- the peripheral administration of LPS (O'Connor, Lawson et al. 2009) iii- the ApN^-/- mice (Liu, Guo et al. 2012). For chronic AdipoRon treatment, the experimental protocol was as followed: • i- Five weeks old male mice (five/cage) received corticosterone (35mg/L dissolved in tap water containing 4 g/L CD) or vehicle alone ad libitum for during 7 consecutive weeks (David, Samuels et al. 2009). Corticosterone and vehicle solutions were changed every 3 days to prevent possible degradation. […]
(§2) All behavioral testing were conducted during the light phase (between 09:00 and 14:00 am) in compliance with the Institutional Animal Care and Use Committee of the University of Nice-Sophia Antipolis (permission number 010344.01 from the French "Ministère de l'Enseignement Supérieur et de la Recherche" granted to Dr. Joëlle Chabry). • Forced Swimming test (FST) - Mice were placed an inescapable transparent tank (20cm diameter, 30cm deep) filled with water (23°C ± 0.5) for six minutes as previously described by Porsolt et al. (1977). […] To initiate testing, mice were placed into the light side and activity was recorded for 5 minutes. […]

Assay [2] relates to corticosterone-treated mice. Description: Learned Helplessness (LH), chronic administration. The following applies: chronic 1mg/kg ip daily. In kind it is in vivo. The protocol: as §1, §2
The subject of assay [3] is presumed serotoninergic neurons. Description: Whole-cell patch-clamp recordings on brain slices, voltage clamp. The class given is cell-based, mouse. On the technique in general: The patch-clamp technique gives a direct electrical read-out from membranes.
The test system of assay [4] is corticosterone-treated mice. Description: Forced Swimming test (FST), chronic administration. The class given is in vivo. The note with it: chronic 1mg/kg ip daily. The protocol: as §1, §2
Where [5] appears, read: vehicle-treated mice (no corticosterone).

On to `O=C(COc1ccc(C(=O)c2ccccc2)cc1)NC1CCN(Cc2ccccc2)CC1` [AdipoRon, 2-(4-Benzoylphenoxy)-N-[1-(phenylmethyl)-4-piperidinyl]-acetamide], for which the “time spent in the aversive light chamber (anxiety behavior)” value in assay [1] (corticosterone-treated mice) is “reversed the anxiety phenotype”; in assay [1] (setting [5]), “without effect”. In addition, the “resignation-like behavior in the LH test (latency, failures to escape)” value is “reversed the effect of corticosterone” in assay [2] (corticosterone-treated mice) and “no significant effect” in assay [2] (setting [5]). The “effect of AdipoRon on current and membrane conductance” value in assay [3] (CsCl internal solution instead of KCl solution) is given as “blocked”. The membrane conductance entry in assay [3] (holding potential of -60 mV, KCl internal solution, 10 µM AdipoRon) is listed as “decrease in membrane conductance”. Also, the induced current entry in assay [3] (holding potential of -60 mV, KCl internal solution, n=9/9 presumed serotoninergic neurons, N=5 mice, 10 µM AdipoRon) is listed as “small inward current”. Further, the “immobility duration in the FST (resignation)” value in assay [4] (corticosterone-treated mice) is recorded as “reversed the effect of corticosterone”; in assay [4] (setting [5]) it was “no significant effect”.
